# According to US10975123B2, “Mutant Akt-specific capture agents, compositions, and methods of using and making” (California Institute of Technology, priority 2014, dated 2021):
# Where a SMILES comes first, the peptide text is derived from it. [ ]: non-standard residue; d: D form.
# Target: T1, GST-Akt1(E17K) protein (Homo sapiens, UniProt P31749, E17K)
# T1 construct: 50 μL of full-length GST-E17K Akt1 from SignalChem was treated with 10× molar excess of the anchor ligand; purchased SignalChem
# Assay: Ligand-directed tosylate labeling with MALDI-TOF MS of tryptic digests
# Assay type: binding
# Conditions: yleaf with N-terminal tosylate-Cy5 (ligand 5), 10x molar excess, two days room temperature
# Text: The selectivity of the yleaf ligand was further verified using the directed labeling technique reported by Tsukiji et al^19. The approach yields information relative to the binding location of the ligand on the protein target. For this method, a payload is attached to the N-terminus of the targeting yleaf ligand through an electrophilic tosylate linker. Upon ligand binding to the protein target, the payload is transferred onto the protein through a nucleophilic SN2 reaction with proximal nucleophilic amino acid side chains (FIG. 3a). The protein can then be trypsin digested and the identity of the fragments containing the payload can be mapped on the protein surface using mass spectrometry (MS). Thus, the site of ligand binding can be estimated. […]
# For the assay, yleaf was modified at the N-terminus to contain a tosylate linker attached to a Cy5 dye molecule to enable easy identification of the labeled and digested protein fragments (FIG. 2a and FIG. 16). […] The labeling of protein target was initially confirmed by visualization on a fluorescent gel reader (FIG. 3b) as well as a Western blotting visualization of an experiment in which a biotin-label was substituted for the fluorescent tag. The labeled protein and an unlabeled control were then trypsin digested from the gel and were analyzed by matrix-assisted laser desorption/ionization time-of-flight (MALDI-TOF) MS (FIGS. 18 and 19). […]
# T1 sequence (P31749 whole entry E17K): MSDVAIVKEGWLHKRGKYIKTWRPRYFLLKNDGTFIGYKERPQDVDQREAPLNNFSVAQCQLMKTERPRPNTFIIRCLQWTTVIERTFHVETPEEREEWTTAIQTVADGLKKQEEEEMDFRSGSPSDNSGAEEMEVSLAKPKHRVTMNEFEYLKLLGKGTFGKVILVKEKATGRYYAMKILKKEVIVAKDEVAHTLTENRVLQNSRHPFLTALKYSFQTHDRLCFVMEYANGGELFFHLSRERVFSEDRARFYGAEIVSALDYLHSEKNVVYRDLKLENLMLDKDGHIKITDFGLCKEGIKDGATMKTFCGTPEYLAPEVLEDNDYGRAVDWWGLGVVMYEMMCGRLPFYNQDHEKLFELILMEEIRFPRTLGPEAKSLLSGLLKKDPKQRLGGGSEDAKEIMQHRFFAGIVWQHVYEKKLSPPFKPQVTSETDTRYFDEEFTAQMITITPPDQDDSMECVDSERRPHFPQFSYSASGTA
structure (smiles),measurement,value
CC(C)C[C@@H](NC(=O)[C@H](N)Cc1ccc(O)cc1)C(=O)N[C@H](CCC(=O)O)C(=O)N[C@H](C)C(=O)N[C@H](Cc1ccccc1)C(N)=O [yleaf] (H-[dY][dL][dE][dA][dF]-NH2; N-terminus assumed),"location of labeled sites on the protein (binding site, off-target binding)",only sites around the expected N-terminal binding site of the yleaf ligand are labeled
